Assay results: ChEMBL document CHEMBL2406940, “Reactive oxygen species production by quercetin causes the death of Leishmania amazonensis intracellular amastigotes” (J Nat Prod, 2013)
Active and inactive are the calls of the source. The calls are words filed in the database; no cut-off is given here.

What was measured:
[1] = test system: Peritoneal macrophage cell; test: Induction of intracellular […] production in Swiss mouse peritoneal macrophages up to 12 uM after 72 hrs by spectrofluorometric analysis; type: functional, cell-based
[2] = test system: Peritoneal macrophage cell; test: Induction of intracellular […] production in promastigotes of Leishmania amazonensis MHOM/BR/75/LTB0016 infected Swiss mouse peritoneal macrophages at 12 uM after 72 hrs by spectrofluorometric analysis relative to control; type: functional
[3] = test system: Peritoneal macrophage cell; test: Induction of intracellular […] production in promastigotes of Leishmania amazonensis MHOM/BR/75/LTB0016 infected Swiss mouse peritoneal macrophages after 72 hrs by spectrofluorometric analysis; type: functional, cell-based
[4] = Cytotoxicity against Swiss mouse peritoneal macrophages after 72 hrs by AlamarBlue assay; type: cell-based; details: Peritoneal macrophage cell
[5] = Selectivity index, ratio of IC50 for Swiss mouse peritoneal macrophages to IC50 for promastigotes of Leishmania amazonensis MHOM/BR/75/LTB0016
[6] = test system: Leishmania amazonensis; test: Antileishmanial activity against promastigotes of Leishmania amazonensis MHOM/BR/75/LTB0016 infected in Swiss mouse peritoneal macrophages assessed as parasite growth inhibition at 12 uM after 72 hrs; type: functional; details: MHOM/BR/75/LTB0016, 72 h, read-out: GI
[7] = test system: Leishmania amazonensis; test: Antileishmanial activity against promastigotes of Leishmania amazonensis MHOM/BR/75/LTB0016 infected in Swiss mouse peritoneal macrophages assessed as reduction of infection index after 72 hrs; type: functional, organism-based
[8] = test system: Leishmania amazonensis; test: Antileishmanial activity against Leishmania amazonensis after 72 hrs; type: functional, organism-based

Structure (SMILES)	Activity [1]	fold change (FC) [2]	Activity [3]	IC50 [4]	Ratio IC50 [5]	inhibition of growth at 12 µM [6]	inhibition [7]	IC50 ([7]; MHOM/BR/75/LTB0016, 72 h)	IC50 [8]
O=c1c(O)c(-c2ccc(O)c(O)c2)oc2cc(O)cc(O)c12 [QUERCETIN]	inactive	1.5	Dose-dependent effect	80.2 µM	16.8	74.8%	Dose-dependent effect	3.4 µM	–
CCCCCCCCCCCCCCCCOP(=O)([O-])OCC[N+](C)(C)C [MILTEFOSINE]	–	–	–	–	–	–	–	–	3.2 µM
